Reference: patent US20040175722A1, “Methods and compositions for reducing screening in oligonucleotide-directed nucleic acid sequence alteration” (priority 2002, published 2004)

Tests used:
[1] = tested on: mutant hygromycin resistance gene in Mata+IntHYG(rep)eGFP; experiment: Yeast cell targeting assay: oligonucleotide-directed alteration of the integrated hygromycin-eGFP target; type: cell-based; conditions: for Alteration per 10^5 Aureobasidin^R colonies: average of four experiments with standard deviation
human β-globin gene [2] = experiment: Dual oligonucleotide experiment: screen of hygromycin-resistant colonies for alteration of the β-globin target in the βS YAC (PCR, SNaPshot); conditions: in hygromycin-selected population; with or without Rad51 overexpression
[3] = tested on: mutated Hyg(rep)eGFP target in Mata-intHyg(rep)eGFP/βYAC; experiment: Dual oligonucleotide experiment: conversion efficiency for the hygromycin target (Example 2); type: cell-based, yeast
[4] = tested on: chromosomal hygromycin mutant gene in LSY678IntHyg(rep)β cells; experiment: Dual targeting protocol: correction efficiency (C.E.) of the chromosomal hygromycin mutation (Example 4); type: cell-based, yeast; conditions: LSY678IntHyg(rep)β + RAD51 expression plasmid; HU and TSA; compared with FIG. 3
human β-globin gene [5] = experiment: Dual targeting protocol: second-site editing of the YAC β-globin gene in hygromycin-resistant colonies (SNaPshot, sequencing); conditions: RAD51 overexpression; HU and TSA

| Substance | Fold correction (relative to Hyg3S/74T) [1] [x] | Alteration per 10^5 Aureobasidin^R colonies [1] | alteration efficiency of the β-globin gene relative to alteration of the hygromycin target (human β-globin gene [2]) | other results |
| --- | --- | --- | --- | --- |
| 5′-C*T*C* GTGCTTTCAGCTTCGATGTAGGAGGGCGTGGATACGTCCTGCGGGTAAATAGCTGCGCCGATGGTTTC *T*A*C-3′ [Hyg3S/74T] | 1 | 0.22 ± 0.3 per 10^5 Aureobasidin^R colonies |  |  |
| 5′-G*C*C* TCACCACCAACTTCATCCACGTTCACCTTGCCTCACAGGGCAGTAACGGCAGACTTCTCCACAGG*A *G*T-3′ [βS-386m] |  |  | approximately 10 fold |  |
| 5′-G*T*A* GAAACCATCGGCGCAGCTATTTACCCGCAGGACGTATCCACGCCCTCCTACATCGAAGCTGAAAGCAC*G *A*G-3′ [Hyg3S/74NT] | 4.0 | 0.89 ± 1.3 per 10^5 Aureobasidin^R colonies |  | Hygromycin Alteration Efficiency (/10^5) ([3]; βS-378m Experiment, Mata-intHyg(rep)eGFP/βYAC (HU + TSA)): 12.79 /10^5; Hygromycin Alteration Efficiency (/10^5) ([3]; βS-378m Experiment, Mata-intHyg(rep)eGFP/βYAC + pYNARad51 (HU + TSA)): 96.96 /10^5; Hygromycin Alteration Efficiency (/10^5) ([3]; βS-386m Experiment, Mata-intHyg(rep)eGFP/βYAC (HU + TSA)): 12.35 /10^5; Hygromycin Alteration Efficiency (/10^5) ([3]; βS-386m Experiment, Mata-intHyg(rep)eGFP/βYAC, no HU or TSA): 3.22 /10^5; effect of RAD51 expression on hygromycin correction efficiency [4]: increases |
| 5′-T*A*A* CGGCAGACTTCTCCACAGGAGTCAGGTGCACCGTGGTGTCTGTTTGAGGTTGCTAGTGAACACAG*T *T*G-3′ [βS-378m] |  |  | approximately 10 fold | cells bearing the corrected hygromycin that also contain the edited β-globin gene (human β-globin gene [5]): approximately 10% |
